Like-named read-outs stand apart in the source and are kept apart here.

The text below walks through data of US10294202B2, “Pyrrolidinones as herbicides” (FMC Corporation, priority 2013, dated 2019).

The subject of one experiment is barnyardgrass. In words: Test A pre-/postemergence herbicide test. Conditions: for Barnyardgrass plant response rating: Preemergence, visual rating on 0 to 100 scale (0 no effect, 100 complete control); for pest or weed control at 125 g/ha / pest or weed control at 500 g/ha: Echinochloa crus-galli, 240 h, read-out: Plant response rating, Barnyardgrass. Format: in vivo, Echinochloa crus-galli. The method in brief:
(§1)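 Seeds sown in loam soil/sand blend received a preemergence directed soil spray of test chemical in non-phytotoxic solvent with surfactant; postemergence plants (2–10 cm, one- to two-leaf stage) were sprayed with the same formulation. After about 10 days in greenhouse, injury was rated visually versus untreated controls, 0 (no effect) to 100 (complete control).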

The next experiment concerns giant foxtail. In words: Test A pre-/postemergence herbicide test. The experiment is classed as in vivo, Setaria faberii. The settings on record: for Foxtail, Giant plant response rating: Preemergence, visual rating on 0 to 100 scale (0 no effect, 100 complete control); for pest or weed control at 125 g/ha / pest or weed control at 500 g/ha: Setaria faberi, 240 h, read-out: Plant response rating, Foxtail, Giant. The method in brief: as §1

A further experiment relates to ryegrass, Italian. In words: Test C pre-/postemergence herbicide test. Format: in vivo, Lolium multiflorum. The settings on record: Preemergence. From the text: (§2) Seeds of plant species selected from blackgrass (Alopecurus myosuroides), ryegrass, Italian (Italian ryegrass, Lolium multiflorum), wheat (winter wheat, Triticum aestivum), galium (catchweed bedstraw, Galium aparine), corn (Zea mays), crabgrass, large (large crabgrass, Digitaria sanguinalis), foxtail, giant (giant foxtail, Setaria faberii), johnsongrass (Sorghum halepense), lambsquarters (Chenopodium album), morningglory (Ipomoea coccinea), nutsedge, yellow (yellow nutsedge, Cyperus esculentus), pigweed (Amaranthus retroflexus), ragweed (common ragweed, Ambrosia elatior), soybean (Glycine max), barnyardgrass (Echinochloa crus-galli), oilseed rape (Brassica napus), waterhemp (common waterhemp, Amaranthus rudis), kochia (Kochia scoparia), oat, wild (wild oat, Avena fatua), surinam grass (Brachiaria decumbens), foxtail, green (green foxtail, Setaria viridis), goosegrass (Eleusine indica), bromegrass, downy (downy bromegrass, Bromus tectorum), nightshade (eastern black nightshade, Solanum ptycanthum), cocklebur (common cocklebur, Xanthium strumarium), cupgrass, woolly (woolly cupgrass, Eriochloa villosa), bermudagrass (Cynodon dactylon), sunflower, (common oilseed sunflower, Helianthus annuus), Russian thistle (Salsola kali) and velvetleaf (Abutilon theophrasti) were planted into a blend of loam soil and sand and treated preemergence with test chemicals formulated in a non-phytotoxic solvent mixture which included a surfactant. At the same time, plants selected from these crop and weed species and also barley (winter barley, Hordeum vulgare), […]), chickweed (common chickweed, Stellaria media), deadnettle (henbit deadnettle, Lamium amplexicaule), and canarygrass (littleseed canarygrass, Phalaris minor) were planted in pots containing Redi-Earth® planting medium (Scotts Company, 14111 Scottslawn Road, Marysville, Ohio 43041) comprising spaghnum peat moss, vermiculite, wetting agent and starter nutrients and treated with postemergence applications of test chemicals formulated in the same manner. Plants ranged in height from 2 to 18 cm (1- to 4-leaf stage) for postemergence treatments. Treated plants and controls were maintained in a greenhouse for 13 to 15 days, after which time all species were compared to controls and visually evaluated. Plant response ratings, summarized in Table C, are based on a scale of 0 to 100 where 0 is no effect and 100 is complete control. A dash (-) response means no test result.

Another experiment deals with corn. In words: Test C pre-/postemergence herbicide test. Format: in vivo, Zea mays. The settings on record: Preemergence.
From the text: as §2

In the next experiment the test system is crabgrass, large. In words: Test C pre-/postemergence herbicide test. Format: in vivo, Digitaria sanguinalis. The settings on record: Preemergence.
From the text: as §2

The subject of a further experiment is johnsongrass. In words: Test C pre-/postemergence herbicide test. The experiment is classed as in vivo, Sorghum halepense. The settings on record: Preemergence.
From the text: as §2

The test system of the next experiment is nutsedge, yellow. In words: Test C pre-/postemergence herbicide test. Format: in vivo, Cyperus esculentus. Conditions: Preemergence.
From the text: as §2

In a further experiment the test system is pigweed. In words: Test C pre-/postemergence herbicide test. Format: in vivo, Amaranthus retroflexus. The settings on record: Preemergence.
From the text: as §2

For a further experiment, the system named is soybean. In words: Test C pre-/postemergence herbicide test. The experiment is classed as in vivo, Glycine max. Conditions: Preemergence.
From the text: as §2

Where [1] appears, read: Postemergence, 125 g ai/ha, 0 to 100 scale, 0 no effect, 100 complete control.
[2] abbreviates: Postemergence, 500 g ai/ha, 0 to 100 scale (0 no effect, 100 complete control).
Setting [3] is: preemergence, 500 g ai/ha, 0 to 100 scale (0 no effect, 100 complete control).
Setting [4] is: preemergence, 500 g ai/ha, 0 to 100 scale.
Where [5] appears, read: 125 g ai/ha, scale 0 to 100 (0 no effect, 100 complete control).
Setting [6] is: 31 g ai/ha, scale 0 to 100 (0 no effect, 100 complete control).
[7] abbreviates: 250 g ai/ha, scale 0 to 100 (0 no effect, 100 complete control).
Setting [8] is: 125 g ai/ha, visual rating, 0 to 100 scale, 0 no effect, 100 complete control, approximately 10 days, preemergence.
[9] abbreviates: Postemergence, 125 g ai/ha, 0 to 100 scale, 0 is no effect, 100 is complete control.
Where [10] appears, read: preemergence, 500 g ai/ha, 0 to 100 scale, 0 is no effect and 100 is complete control.
The mark [11] stands for this setting: post-emergence, Postemergence, 125 g ai/ha, 0 to 100 scale, 0 no effect, 100 complete control.
[12] abbreviates: post-emergence, Postemergence, 500 g ai/ha, 0 to 100 scale (0 no effect, 100 complete control).
Setting [13] is: pre-emergence, preemergence, 500 g ai/ha, 0 to 100 scale (0 no effect, 100 complete control).
[14] abbreviates: pre-emergence, preemergence, 500 g ai/ha, 0 to 100 scale.

As for `O=C1NCC(c2ccc(F)c(F)c2)C1C(=O)Nc1ccccc1C(F)(F)F` (racemic) [Compound 6], the “Plant response rating, Barnyardgrass” value in the experiment on barnyardgrass (setting [1]) was found to be 40; in the experiment on barnyardgrass (setting [2]) it was 80; in the experiment on barnyardgrass (setting [3]), 80. Besides, the “Barnyardgrass plant response rating” value in the experiment on barnyardgrass (125 g ai/ha) worked out at 50. Also, the “Plant response rating, Foxtail, Giant” value in the experiment on giant foxtail (setting [1]) amounted to 70; with giant foxtail (setting [2]), 80; with giant foxtail (setting [4]), 90. In addition, in the experiment on giant foxtail (125 g ai/ha), the “Foxtail, Giant plant response rating” value was determined as 90.
As for `O=C1NCC(c2ccc(Cl)c(Cl)c2)C1C(=O)Nc1ccccc1F` (racemic) [Compound 14], the “Plant response rating, Barnyardgrass” value amounted to 60 in the experiment on barnyardgrass (setting [1]), 80 in the experiment with barnyardgrass (setting [2]) and 90 in the experiment with barnyardgrass (setting [3]). Besides, the “Barnyardgrass plant response rating” value in the experiment on barnyardgrass (125 g ai/ha) is given as 80. Besides, the “Plant response rating, Foxtail, Giant” value in the experiment on giant foxtail (setting [1]) was 60; with giant foxtail (setting [2]), 80; with giant foxtail (setting [4]), 90. The “Foxtail, Giant plant response rating” value in the experiment on giant foxtail (125 g ai/ha) is listed as 80. For the same compound, the “Plant response rating, Ryegrass, Italian” value amounted to 0 with ryegrass, Italian (62 g ai/ha, scale 0 to 100) and 0 in the experiment with ryegrass, Italian (setting [5]). In addition, the “Plant response rating, Corn” value was found to be 0 in the experiment on corn (62 g ai/ha, scale 0 to 100); 0 in the experiment with corn (setting [5]); 0 with corn (setting [7]). The “Corn plant response rating” value in the experiment with corn (setting [6]) is listed as 0. Besides, the “Plant response rating, Crabgrass, Large” value in the experiment with crabgrass, large (62 g ai/ha, scale 0 to 100) was 98; in the experiment with crabgrass, large (setting [5]), 98; with crabgrass, large (setting [7]), 100. Moreover, in the experiment with crabgrass, large (setting [6]), the “Crabgrass, Large plant response rating” value was 90. For the same compound, the “Plant response rating, Johnsongrass” value in the experiment on johnsongrass (62 g ai/ha, scale 0 to 100) was determined as 0; in the experiment on johnsongrass (setting [5]), 0. Also, the “Plant response rating, Nutsedge, Yellow” value in the experiment on nutsedge, yellow (62 g ai/ha, scale 0 to 100) is reported as 0; in the experiment on nutsedge, yellow (setting [5]) it was 0. The “Plant response rating, Pigweed” value was 0 with pigweed (62 g ai/ha, scale 0 to 100) and 0 with pigweed (setting [5]). In addition, the “Plant response rating, Soybean” value in the experiment on soybean (62 g ai/ha, scale 0 to 100) is recorded as 0; in the experiment on soybean (setting [5]) it was 0.
Turning to `O=C1NCC(c2cccc(C(F)F)c2)C1C(=O)Nc1ccccc1F` (racemic) [Compound 210], the “Plant response rating, Barnyardgrass” value in the experiment with barnyardgrass (setting [8]) was 60; in the experiment with barnyardgrass (setting [9]), 80; in the experiment on barnyardgrass (setting [10]) it was 90. In addition, in the experiment on barnyardgrass (Postemergence, 500 g ai/ha), the “Barnyardgrass plant response rating (0 to 100 scale, 0 is no effect, 100 is complete control)” value amounted to 90. Also, the “Plant response rating, Foxtail, Giant” value in the experiment on giant foxtail (setting [8]) is listed as 80; in the experiment on giant foxtail (setting [9]) it was 50; in the experiment with giant foxtail (setting [10]), 90. For the same compound, in the experiment on giant foxtail (Postemergence, 500 g ai/ha), the “Foxtail, Giant plant response rating (0 to 100 scale, 0 is no effect, 100 is complete control)” value was 90.
In the case of `O=C1NCC(Br)(c2ccccc2)C1C(=O)Nc1ccccc1F` (stereo not shown) [Compound 92, 4-bromo-N-(2-fluorophenyl)-2-oxo-4-phenyl-3-pyrrolidinecarboxamide], the pest or weed control at 125 g/ha in the experiment on barnyardgrass (setting [11]) was determined as 20%; with giant foxtail (setting [11]), 0%. In addition, the pest or weed control at 500 g/ha was 70% in the experiment with barnyardgrass (setting [12]), 90% in the experiment on barnyardgrass (setting [13]), 10% in the experiment on giant foxtail (setting [12]) and 90% in the experiment on giant foxtail (setting [14]). Moreover, the “Barnyardgrass plant response rating” value with barnyardgrass (125 g ai/ha) came to 60. Also, the “Foxtail, Giant plant response rating” value in the experiment with giant foxtail (125 g ai/ha) came to 0.
Regarding `O=C1NCC(c2ccccc2)C1(Br)C(=O)Nc1ccccc1F` (stereo not shown) [Compound 93, 3-bromo-N-(2-fluorophenyl)-2-oxo-4-phenyl-3-pyrrolidinecarboxamide], the pest or weed control at 125 g/ha with barnyardgrass (setting [11]) and in the experiment with giant foxtail (setting [11]) was 10% throughout. The pest or weed control at 500 g/ha in the experiment on barnyardgrass (setting [12]) came to 60%; in the experiment with barnyardgrass (setting [13]), 90%; in the experiment on giant foxtail (setting [12]), 60%; with giant foxtail (setting [14]), 90%. The “Barnyardgrass plant response rating” value with barnyardgrass (125 g ai/ha) is given as 50. In addition, the “Foxtail, Giant plant response rating” value in the experiment on giant foxtail (125 g ai/ha) amounted to 80.
